The values that follow are results of earlier work, collected in patent US10493069B2, “Methods of treating behavioral syndromes using pipradrol” (Ovid Therapeutics Inc., priority 2016, dated 2019).

The test system of the data set is individuals with depression. The conditions noted are these: study on 111 individuals with depression; Rickels et al., J Clin Pharmacol 14, 127-133 (1974).

Turning to `OC(c1ccccc1)(c1ccccc1)C1CCCCN1` (stereo not shown) [pipradrol], the “efficacy compared with placebo in depression” value is reported as “not superior to placebo”.
